# Key:
# Assay type in all cases: in vivo
# [1] = test system: large (Lg) crabgrass (Digitaria sanguinalis); test: Test A pre-/postemergence greenhouse herbicide test, visual injury rating 0-100
# Outline: (§1)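 Planting in a loam and sand mixture preceded a directed preemergence soil spray; postemergence spray was applied concurrently to one- to two-leaf plants. After roughly 10 days under glass, injury is scored visually against untreated controls, 0–100.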
# [2] = test system: pigweed (Amaranthus retroflexus); test: as above
# Outline: as §1
# [3] = test system: wheat (Triticum aestivum); test: as above
# Outline: as §1
# corn (Zea mays) = test: as above
# Outline: as §1
# [4] = test system: giant foxtail (Setaria faberii); test: as above
# Outline: as §1
# [5] = test system: velvetleaf (Abutilon theophrasti); test: as above
# Outline: as §1
# [6] = test system: morningglory (Ipomoea spp.); test: as above; conditions: for Morningglory plant response rating (0 = no effect, 100 = complete control): 125 g ai/ha
# Outline: as §1
# [7] = test system: barnyardgrass (Echinochloa crus-galli); test: as above
# Outline: as §1
# [8] = test system: ducksalad (Heteranthera limosa); test: Test B flooded paddy test, plant response rating 0-100; conditions: Flood, 250 g ai/ha; scale 0 to 100 (0 no effect, 100 complete control); 13 to 15 days
# Outline: (§2)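 Pots were flooded to 3 cm above the soil surface at treatment, compound applied directly to the paddy water, and that depth held throughout. Plants were kept in a greenhouse for 13 to 15 days, then visually rated against untreated controls.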
# [9] = test system: sedge, umbrella (small-flower umbrella sedge, Cyperus difformis); test: as above; conditions: Flood, 250 g ai/ha; scale 0 to 100 (0 no effect, 100 complete control); 13 to 15 days
# Outline: as §2
# rice (Oryza sativa) = test: as above; conditions: Flood, 250 g ai/ha; scale 0 to 100 (0 no effect, 100 complete control); 13 to 15 days
# Outline: as §2
# [10] = test system: barnyardgrass (Echinochloa crus-galli); test: as above; conditions: Flood, 250 g ai/ha; scale 0 to 100 (0 no effect, 100 complete control); 13 to 15 days
# Outline: as §2
structure (smiles),measurement,setting,value
N#CCn1cc(C(=O)c2ccccc2)c(-c2cc(Cl)cc(Cl)c2)n1 [Compound 43],"Plant response rating (0 to 100 scale), Crabgrass, Large","[1]; Postemergence, 125 g ai/ha",0
same,"Plant response rating (0 to 100 scale), Crabgrass, Large","[1]; Postemergence, 500 g ai/ha",0
same,"Crabgrass, Large plant response rating (0 = no effect, 100 = complete control)","[1]; Preemergence, 125 g ai/ha",0
same,"Plant response rating (0 to 100 scale), Crabgrass, Large","[1]; Preemergence, 500 g ai/ha",0
same,"Plant response rating (0 to 100 scale), Pigweed","[2]; Postemergence, 125 g ai/ha",50
same,"Plant response rating (0 to 100 scale), Pigweed","[2]; Postemergence, 500 g ai/ha",80
same,"Pigweed plant response rating (0 = no effect, 100 = complete control)","[2]; Preemergence, 125 g ai/ha",0
same,"Plant response rating (0 to 100 scale), Pigweed","[2]; Preemergence, 500 g ai/ha",40
same,"Plant response rating (0 to 100 scale), Wheat","[3]; Postemergence, 125 g ai/ha",0
same,"Plant response rating (0 to 100 scale), Wheat","[3]; Postemergence, 500 g ai/ha",0
same,"Wheat plant response rating (0 = no effect, 100 = complete control)","[3]; Preemergence, 125 g ai/ha",0
same,"Plant response rating (0 to 100 scale), Wheat","[3]; Preemergence, 500 g ai/ha",0
same,"Plant response rating (0 to 100 scale), Corn","corn (Zea mays); Postemergence, 125 g ai/ha",0
same,"Plant response rating (0 to 100 scale), Corn","corn (Zea mays); Postemergence, 500 g ai/ha",0
same,"Corn plant response rating (0 = no effect, 100 = complete control)","corn (Zea mays); Preemergence, 125 g ai/ha",0
same,"Plant response rating (0 to 100 scale), Corn","corn (Zea mays); Preemergence, 500 g ai/ha",0
same,"Plant response rating (0 to 100 scale), Foxtail, Giant","[4]; Postemergence, 125 g ai/ha",0
same,"Plant response rating (0 to 100 scale), Foxtail, Giant","[4]; Postemergence, 500 g ai/ha",0
same,"Foxtail, Giant plant response rating (0 = no effect, 100 = complete control)","[4]; Preemergence, 125 g ai/ha",0
same,"Plant response rating (0 to 100 scale), Foxtail, Giant","[4]; Preemergence, 500 g ai/ha",0
same,"Plant response rating (0 to 100 scale), Velvetleaf","[5]; Postemergence, 125 g ai/ha",20
same,"Plant response rating (0 to 100 scale), Velvetleaf","[5]; Postemergence, 500 g ai/ha",80
same,"Velvetleaf plant response rating (0 = no effect, 100 = complete control)","[5]; Preemergence, 125 g ai/ha",30
same,"Plant response rating (0 to 100 scale), Velvetleaf","[5]; Preemergence, 500 g ai/ha",30
same,"Morningglory plant response rating (0 = no effect, 100 = complete control)",[6]; Preemergence,0
same,"Plant response rating (0 to 100 scale), Morningglory","[6]; Preemergence, 500 g ai/ha",0
same,"Plant response rating (0 to 100 scale), Barnyardgrass","[7]; Postemergence, 125 g ai/ha",0
same,"Plant response rating (0 to 100 scale), Barnyardgrass","[7]; Postemergence, 500 g ai/ha",0
same,"Barnyardgrass plant response rating (0 = no effect, 100 = complete control)","[7]; Preemergence, 125 g ai/ha",0
same,"Plant response rating (0 to 100 scale), Barnyardgrass","[7]; Preemergence, 500 g ai/ha",0
same,"Plant response rating, Ducksalad",[8],0
same,"Plant response rating, Sedge, Umbrella",[9],0
same,"Plant response rating, Rice",rice (Oryza sativa),0
same,"Plant response rating, Barnyardgrass",[10],0
CC(=O)Cn1cc(C(=O)c2ccccc2)c(-c2cc(Cl)cc(Cl)c2)n1 [Compound 45],"Plant response rating (0 to 100 scale), Crabgrass, Large","[1]; Postemergence, 125 g ai/ha",0
same,"Plant response rating (0 to 100 scale), Crabgrass, Large","[1]; Postemergence, 500 g ai/ha",0
same,"Crabgrass, Large plant response rating (0 = no effect, 100 = complete control)","[1]; Preemergence, 125 g ai/ha",0
same,"Plant response rating (0 to 100 scale), Crabgrass, Large","[1]; Preemergence, 500 g ai/ha",0
same,"Plant response rating (0 to 100 scale), Pigweed","[2]; Postemergence, 125 g ai/ha",40
same,"Plant response rating (0 to 100 scale), Pigweed","[2]; Postemergence, 500 g ai/ha",60
same,"Pigweed plant response rating (0 = no effect, 100 = complete control)","[2]; Preemergence, 125 g ai/ha",0
same,"Plant response rating (0 to 100 scale), Pigweed","[2]; Preemergence, 500 g ai/ha",70
same,"Plant response rating (0 to 100 scale), Wheat","[3]; Postemergence, 125 g ai/ha",0
same,"Plant response rating (0 to 100 scale), Wheat","[3]; Postemergence, 500 g ai/ha",0
same,"Wheat plant response rating (0 = no effect, 100 = complete control)","[3]; Preemergence, 125 g ai/ha",0
same,"Plant response rating (0 to 100 scale), Wheat","[3]; Preemergence, 500 g ai/ha",0
same,"Plant response rating (0 to 100 scale), Corn","corn (Zea mays); Postemergence, 125 g ai/ha",0
same,"Plant response rating (0 to 100 scale), Corn","corn (Zea mays); Postemergence, 500 g ai/ha",0
same,"Corn plant response rating (0 = no effect, 100 = complete control)","corn (Zea mays); Preemergence, 125 g ai/ha",0
same,"Plant response rating (0 to 100 scale), Corn","corn (Zea mays); Preemergence, 500 g ai/ha",0
same,"Plant response rating (0 to 100 scale), Foxtail, Giant","[4]; Postemergence, 125 g ai/ha",0
same,"Plant response rating (0 to 100 scale), Foxtail, Giant","[4]; Postemergence, 500 g ai/ha",0
same,"Foxtail, Giant plant response rating (0 = no effect, 100 = complete control)","[4]; Preemergence, 125 g ai/ha",0
same,"Plant response rating (0 to 100 scale), Foxtail, Giant","[4]; Preemergence, 500 g ai/ha",0
same,"Plant response rating (0 to 100 scale), Velvetleaf","[5]; Postemergence, 125 g ai/ha",60
same,"Plant response rating (0 to 100 scale), Velvetleaf","[5]; Postemergence, 500 g ai/ha",80
same,"Velvetleaf plant response rating (0 = no effect, 100 = complete control)","[5]; Preemergence, 125 g ai/ha",20
same,"Plant response rating (0 to 100 scale), Velvetleaf","[5]; Preemergence, 500 g ai/ha",30
same,"Morningglory plant response rating (0 = no effect, 100 = complete control)",[6]; Preemergence,0
same,"Plant response rating (0 to 100 scale), Morningglory","[6]; Preemergence, 500 g ai/ha",0
same,"Plant response rating (0 to 100 scale), Barnyardgrass","[7]; Postemergence, 125 g ai/ha",0
same,"Plant response rating (0 to 100 scale), Barnyardgrass","[7]; Postemergence, 500 g ai/ha",0
same,"Barnyardgrass plant response rating (0 = no effect, 100 = complete control)","[7]; Preemergence, 125 g ai/ha",0
same,"Plant response rating (0 to 100 scale), Barnyardgrass","[7]; Preemergence, 500 g ai/ha",0
same,"Plant response rating, Ducksalad",[8],0
same,"Plant response rating, Sedge, Umbrella",[9],0
same,"Plant response rating, Rice",rice (Oryza sativa),0
same,"Plant response rating, Barnyardgrass",[10],0
CCn1cc(C(=O)c2ccccc2)c(-c2cc(F)cc(C(F)(F)F)c2)n1 [Compound 48],"Plant response rating (0 to 100 scale), Crabgrass, Large","[1]; Postemergence, 1000 g ai/ha",20
same,"Plant response rating (0 to 100 scale), Crabgrass, Large","[1]; Preemergence, 1000 g ai/ha",0
same,"Plant response rating (0 to 100 scale), Pigweed","[2]; Postemergence, 1000 g ai/ha",90
same,"Plant response rating (0 to 100 scale), Pigweed","[2]; Preemergence, 1000 g ai/ha",100
same,"Plant response rating (0 to 100 scale), Wheat","[3]; Postemergence, 1000 g ai/ha",0
same,"Plant response rating (0 to 100 scale), Wheat","[3]; Preemergence, 1000 g ai/ha",0
same,"Plant response rating (0 to 100 scale), Corn","corn (Zea mays); Postemergence, 1000 g ai/ha",0
same,"Plant response rating (0 to 100 scale), Corn","corn (Zea mays); Preemergence, 1000 g ai/ha",0
same,"Plant response rating (0 to 100 scale), Foxtail, Giant","[4]; Postemergence, 1000 g ai/ha",20
same,"Plant response rating (0 to 100 scale), Foxtail, Giant","[4]; Preemergence, 1000 g ai/ha",0
same,"Plant response rating (0 to 100 scale), Velvetleaf","[5]; Postemergence, 1000 g ai/ha",90
same,"Plant response rating (0 to 100 scale), Velvetleaf","[5]; Preemergence, 1000 g ai/ha",80
same,"Plant response rating (0 to 100 scale), Morningglory","[6]; Postemergence, 1000 g ai/ha",20
same,"Plant response rating (0 to 100 scale), Morningglory","[6]; Preemergence, 1000 g ai/ha",0
same,"Plant response rating (0 to 100 scale), Barnyardgrass","[7]; Postemergence, 1000 g ai/ha",20
same,"Plant response rating (0 to 100 scale), Barnyardgrass","[7]; Preemergence, 1000 g ai/ha",0
same,"Plant response rating, Ducksalad",[8],0
same,"Plant response rating, Sedge, Umbrella",[9],0
same,"Plant response rating, Rice",rice (Oryza sativa),0
same,"Plant response rating, Barnyardgrass",[10],0

# Source: patent US10167262B2, “Herbicidal substituted 3-arylpyrazoles” (FMC CORPORATION, priority 2014, dated 2019)
